Experimental data from PubChem BioAssay AID256 (DTP/NCI, 2004).
Values joined by “and” are separate entries in the source; they are usually repeats but may differ in a detail not shown here. Equal entries are not always repeated. Toxic doses and inconclusive results are not listed.

Tested on: CD2F1 mice, L1210 leukemia ip, survival T/C
Assay: NCI In Vivo Anticancer Drug Screen. Data for tumor model L1210 Leukemia (intraperitoneal) in CD2F1 (CDF1) mice
Details: higher = longer survival
Outline: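 Each value reflects a quotient of treated over vehicle control outcomes in mice with a transplanted tumor.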

[1] = endpoint: mean survival time, dose: 100.0 mg/kg/injection, schedule: Q04DX003 (ip), vehicle: saline
[2] = endpoint: mean survival time, dose: 200.0 mg/kg/injection, schedule: Q01DX009 (ip), vehicle: saline
[3] = endpoint: mean survival time, dose: 200.0 mg/kg/injection, schedule: Q04DX003 (ip), vehicle: saline
[4] = endpoint: mean survival time, dose: 400.0 mg/kg/injection, schedule: Q04DX003 (ip), vehicle: saline
[5] = endpoint: mean survival time, dose: 100.0 mg/kg/injection, schedule: Q01DX009 (ip), vehicle: saline with Tween-80
[6] = endpoint: mean survival time, dose: 200.0 mg/kg/injection, schedule: Q01DX009 (ip), vehicle: saline with Tween-80
[7] = endpoint: mean survival time, dose: 400.0 mg/kg/injection, schedule: Q01DX009 (ip), vehicle: saline with Tween-80
[8] = endpoint: mean survival time, dose: 25.0 mg/kg/injection, schedule: Q01DX009 (ip), vehicle: saline with Tween-80
[9] = endpoint: mean survival time, dose: 200.0 mg/kg/injection, schedule: Q04DX003 (ip), vehicle: saline with Tween-80
[10] = endpoint: mean survival time, dose: 400.0 mg/kg/injection, schedule: Q04DX003 (ip), vehicle: saline with Tween-80
[11] = endpoint: mean survival time, dose: 100.0 mg/kg/injection, schedule: Q04DX002 (ip), vehicle: saline with Tween-80
[12] = endpoint: mean survival time, dose: 200.0 mg/kg/injection, schedule: Q04DX002 (ip), vehicle: saline with Tween-80
[13] = endpoint: mean survival time, dose: 400.0 mg/kg/injection, schedule: Q04DX002 (ip), vehicle: saline with Tween-80
[14] = endpoint: mean survival time, dose: 100.0 mg/kg/injection, schedule: Q04DX003 (ip), vehicle: saline with Tween-80
[15] = endpoint: mean survival time, dose: 100.0 mg/kg/injection, schedule: Q01DX001 (ip), vehicle: saline with Tween-80
[16] = endpoint: mean survival time, dose: 200.0 mg/kg/injection, schedule: Q01DX001 (ip), vehicle: saline with Tween-80
[17] = endpoint: mean survival time, dose: 400.0 mg/kg/injection, schedule: Q01DX001 (ip), vehicle: saline with Tween-80

SMILES: OCC1OC(n2cnc3c(SCc4ccccc4)ncnc32)C(O)C1O (stereo not given)
- T/C (endpoint: mean survival time, dose: 78.0 mg/kg/injection, schedule: Q01DX001 (ip), vehicle: saline): 104 % of control
- T/C [1]: 101 % of control
- T/C (endpoint: mean survival time, dose: 117.0 mg/kg/injection, schedule: Q01DX001 (ip), vehicle: saline): 109 % of control
- T/C (endpoint: mean survival time, dose: 132.0 mg/kg/injection, schedule: Q01DX009 (ip), vehicle: saline): 176 % of control
- T/C [2]: 187 % of control
- T/C [3]: 98 % of control
- T/C (endpoint: mean survival time, dose: 400.0 mg/kg/injection, schedule: Q01DX001 (ip), vehicle: other): 152 % of control
- T/C [4]: 104 % of control

SMILES: COc1ccc2c3c(ccc2c1)C1CCC(=O)C1(C)CC3 (stereo not given)
- T/C [5]: 102 % of control
- T/C [6]: 96 % of control
- T/C [7]: 98 % of control

SMILES: Nc1nc(N)c(-c2ccc(Cl)c(Cl)c2)c(CBr)n1
- T/C (endpoint: mean survival time, dose: 12.5 mg/kg/injection, schedule: Q01DX009 (ip), vehicle: saline with Tween-80): 102 % of control
- T/C [8]: 105 % of control

SMILES: CCCCCCCCCCCCCCCCOc1ccc(-c2cc(Cl)c3cc(S(=O)(=O)F)ccc3n2)cc1S(=O)(=O)F
- T/C [5]: 97 % of control
- T/C [6]: 98 % of control
- T/C [9]: 87 % of control
- T/C [10]: 95 % of control

SMILES: Cc1ccccc1NC(=O)Oc1ccc(-c2ccccc2)cc1Cl
- T/C [11]: 86 % of control
- T/C [12]: 89 % of control
- T/C [13]: 93 % of control

SMILES: CCOC(=O)Nc1cc(N)c(N)c(=O)[nH]1
- T/C (endpoint: mean survival time, dose: 100.0 mg/kg/injection, schedule: Q01DX001 (ip), vehicle: carboxymethylcellulose (CMC)): 102 % of control
- T/C (endpoint: mean survival time, dose: 200.0 mg/kg/injection, schedule: Q01DX001 (ip), vehicle: carboxymethylcellulose (CMC)): 96 % of control
- T/C (endpoint: mean survival time, dose: 400.0 mg/kg/injection, schedule: Q01DX001 (ip), vehicle: carboxymethylcellulose (CMC)): 102 % of control

SMILES: NC(=O)CSCC(N)=O
- T/C [14]: 94 % of control
- T/C [9]: 96 % of control
- T/C [10]: 90 % of control

SMILES: CCCCCCCCCCCC[NH-].CCCCCCCCCCCC[NH-].[Cl][Pt+2][Cl]
- T/C (endpoint: mean survival time, dose: 6.25 mg/kg/injection, schedule: Q04DX003 (ip), vehicle: saline + alcohol): 111 % of control
- T/C (endpoint: mean survival time, dose: 12.5 mg/kg/injection, schedule: Q04DX003 (ip), vehicle: saline + alcohol): 95 % of control
- T/C (endpoint: mean survival time, dose: 25.0 mg/kg/injection, schedule: Q04DX003 (ip), vehicle: saline + alcohol): 100 % of control
- T/C (endpoint: mean survival time, dose: 50.0 mg/kg/injection, schedule: Q04DX003 (ip), vehicle: saline + alcohol): 103 % of control
- T/C (endpoint: mean survival time, dose: 100.0 mg/kg/injection, schedule: Q04DX003 (ip), vehicle: saline + alcohol): 100 % of control

SMILES: CC(C)(C)C1=CC(=O)C(C(C)(C)C)=CC1=O
- T/C [15]: 97 % of control
- T/C [16]: 103 % of control

SMILES: Cc1cc(Br)ccc1C(=O)O
- T/C [15]: 94 % of control
- T/C [16]: 91 % of control
- T/C [17]: 102 % of control

SMILES: COc1ccc(S(=O)(=O)F)cc1NC(=O)c1ccc2ccccc2c1O
- T/C (endpoint: mean survival time, dose: 100.0 mg/kg/injection, schedule: Q01DX009 (ip), vehicle: saline): 112 % of control
- T/C [2]: 108 % of control
- T/C (endpoint: mean survival time, dose: 400.0 mg/kg/injection, schedule: Q01DX009 (ip), vehicle: saline): 113 % of control

SMILES: CC(=O)C(C(C)=O)c1ccc([N+](=O)[O-])cc1[N+](=O)[O-].CC(=O)C(C(C)=O)c1ccc([N+](=O)[O-])cc1[N+](=O)[O-].[Cu]
- T/C (endpoint: median survival time, dose: 50.0 mg/kg/injection, schedule: Q04DX002 (ip), vehicle: saline with Tween-80): 88 % of control
- T/C (endpoint: median survival time, dose: 100.0 mg/kg/injection, schedule: Q04DX002 (ip), vehicle: saline with Tween-80): 88 % of control
- T/C (endpoint: median survival time, dose: 400.0 mg/kg/injection, schedule: Q04DX002 (ip), vehicle: saline with Tween-80): 88 % of control

SMILES: O=C(Nc1cc(S(=O)(=O)O)ccc1Oc1ccccc1Cl)Nc1cc(S(=O)(=O)O)ccc1Oc1ccccc1Cl
- T/C (endpoint: mean survival time, dose: 100.0 mg/kg/injection, schedule: Q01DX009 (ip), vehicle: Klucel (hydroxypropylcellulose) (HPC)): 101 % of control
- T/C [14]: 95 % of control
- T/C (endpoint: mean survival time, dose: 200.0 mg/kg/injection, schedule: Q01DX009 (ip), vehicle: Klucel (hydroxypropylcellulose) (HPC)): 98 % of control
- T/C [9]: 95 % of control
- T/C (endpoint: mean survival time, dose: 400.0 mg/kg/injection, schedule: Q01DX009 (ip), vehicle: Klucel (hydroxypropylcellulose) (HPC)): 97 % of control
- T/C [10]: 98 % of control

SMILES: CC[N+]1(C)C2CCC1CC(O)C2 (stereo not given)
- T/C (endpoint: mean survival time, dose: 100.0 mg/kg/injection, schedule: Q04DX002 (ip), vehicle: saline): 105 % of control
- T/C (endpoint: mean survival time, dose: 200.0 mg/kg/injection, schedule: Q04DX002 (ip), vehicle: saline): 102 % of control

SMILES: CC1CC(C)(C)N=C(C2(c3ccccc3)CCC2)O1 (stereo not given)
- T/C [15]: 101 % of control
- T/C [11]: 101 % of control
- T/C [16]: 111 % of control
- T/C [12]: 93 % of control
- T/C [17]: 98 % of control
- T/C [13]: 93 % of control

SMILES: NC(N)=NNc1ccccc1
- T/C (endpoint: mean survival time, dose: 6.25 mg/kg/injection, schedule: Q01DX009 (ip), vehicle: saline): 100 % of control
- T/C (endpoint: mean survival time, dose: 12.5 mg/kg/injection, schedule: Q01DX009 (ip), vehicle: saline): 100 % of control
- T/C (endpoint: mean survival time, dose: 25.0 mg/kg/injection, schedule: Q01DX009 (ip), vehicle: saline): 96 % of control

SMILES: O=C(CCl)NCCCCNC(=O)CCl
- T/C (endpoint: mean survival time, dose: 100.0 mg/kg/injection, schedule: Q01DX001 (ip), vehicle: saline): 101 % of control
- T/C (endpoint: mean survival time, dose: 200.0 mg/kg/injection, schedule: Q01DX001 (ip), vehicle: saline): 98 % of control
- T/C (endpoint: mean survival time, dose: 400.0 mg/kg/injection, schedule: Q01DX001 (ip), vehicle: saline): 100 % of control

SMILES: CC(C)(C)C(=O)CC(=O)C(C)(C)C
- T/C [14]: 95 % of control and 94 % of control
- T/C [9]: 91 % of control and 100 % of control
- T/C [10]: 95 % of control

SMILES: OC1C=C(c2ccccc2)C(c2ccccc2)C(c2ccccc2)C1 (stereo not given)
- T/C [15]: 89 % of control
- T/C [17]: 101 % of control

SMILES: CC1(C)C2CC=C(C[P+](c3ccccc3)(c3ccccc3)c3ccccc3)C1C2 (stereo not given)
- T/C (endpoint: mean survival time, dose: 5.0 mg/kg/injection, schedule: Q01DX009 (ip), vehicle: saline sonified): 109 % of control
- T/C (endpoint: mean survival time, dose: 5.0 mg/kg/injection, schedule: Q04DX003 (ip), vehicle: saline): 103 % of control
- T/C (endpoint: mean survival time, dose: 10.0 mg/kg/injection, schedule: Q04DX003 (ip), vehicle: saline): 92 % of control
- T/C (endpoint: mean survival time, dose: 20.0 mg/kg/injection, schedule: Q04DX003 (ip), vehicle: saline): 87 % of control

SMILES: COC(=O)CC1CCS(=O)(=O)C1 (stereo not given)
- T/C [14]: 98 % of control
- T/C [9]: 93 % of control
- T/C [10]: 92 % of control

SMILES: O=C(CCCC(Br)c1ccccc1)c1ccccc1 (stereo not given)
- T/C [15]: 90 % of control
- T/C [17]: 95 % of control

SMILES: CCCCOS(=O)(=O)c1ccc(Cl)c([N+](=O)[O-])c1
- T/C [8]: 102 % of control
- T/C (endpoint: mean survival time, dose: 50.0 mg/kg/injection, schedule: Q01DX009 (ip), vehicle: saline with Tween-80): 100 % of control
- T/C [5]: 91 % of control
- T/C [14]: 96 % of control
- T/C [9]: 98 % of control
- T/C [10]: 91 % of control

SMILES: CC(C)CN(CC(C)C)C(=S)[S-].CC(C)CN(CC(C)C)C(=S)[S-].[Zn]
- T/C (endpoint: mean survival time, dose: 75.0 mg/kg/injection, schedule: Q04DX003 (ip), vehicle: saline): 91 % of control
- T/C (endpoint: mean survival time, dose: 150.0 mg/kg/injection, schedule: Q04DX003 (ip), vehicle: saline): 89 % of control
- T/C (endpoint: mean survival time, dose: 300.0 mg/kg/injection, schedule: Q04DX003 (ip), vehicle: saline): 95 % of control

SMILES: C[CH2][Sn]1([CH2]C)[O]C2C(CO)OC(n3cnc4c(N)ncnc43)C2[O]1 (stereo not given)
- T/C (endpoint: mean survival time, dose: 1.56 mg/kg/injection, schedule: Q01DX005 (ip), vehicle: other): 100 % of control
- T/C (endpoint: mean survival time, dose: 3.13 mg/kg/injection, schedule: Q01DX005 (ip), vehicle: other): 102 % of control
- T/C (endpoint: mean survival time, dose: 6.25 mg/kg/injection, schedule: Q01DX005 (ip), vehicle: other): 104 % of control
- T/C (endpoint: mean survival time, dose: 12.5 mg/kg/injection, schedule: Q01DX005 (ip), vehicle: other): 105 % of control and 106 % of control

SMILES: CCNc1nc(Cl)nc(NC(C)C)n1
- T/C [5]: 93 % of control
- T/C [1]: 95 % of control
- T/C [6]: 98 % of control
- T/C [3]: 101 % of control
- T/C [4]: 92 % of control

SMILES: NC(=O)Cc1c[nH]c2cc(O)ccc12
- T/C [5]: 93 % of control
- T/C [14]: 97 % of control
- T/C [6]: 95 % of control
- T/C [9]: 97 % of control
- T/C [7]: 100 % of control
- T/C [10]: 95 % of control
